Measurements published in patent publication US20230400471A1, “SYSTEMS, COMPOSITIONS AND METHODS OF DETERMINING VIABILITY OF EMBRYOS USING THE SAME” (BioIncept, LLC, priority 2020, published 2023).

What was measured:
[1] = test system: rabbit anti-PIF monoclonal antibody; assay: PIF colorimetric ELISA using rabbit anti-PIF monoclonal antibody, epitope mapping with PIF peptides of various length; assay type: binding; details: for % Recovery by Rabbit Monoclonal Antibody: representative value of three repeats; for recovery by PIF colorimetric ELISA using rabbit anti-PIF monoclonal antibody: Table 3, spike concentration not given
Description: (§1) To study PIF peptide and its derivatives of different length for binding to rabbit anti-PIF monoclonal antibody and rabbit anti-PIF polyclonal antibody, PIF peptides of various lengths as listed in Table 2 was synthesized, reconstituted in PBS and two different concentrations were tested by respective colorimetric ELISA following standard protocol. The standards were run in duplicate and the samples were run in triplicate and repeated three times.

[2] = test system: rabbit anti-PIF polyclonal antibody; assay: PIF colorimetric ELISA using rabbit polyclonal antibody, epitope mapping with PIF peptides of various length; assay type: binding; details: for % recovery by Rabbit Polyclonal Antibody: representative value of three repeats; for recovery by PIF colorimetric ELISA using rabbit polyclonal antibody: Table 3, spike concentration not given
Description: as §1

Substance	% Recovery by Rabbit Monoclonal Antibody ([1]; spike concentration 100 ng/ml)	% Recovery by Rabbit Monoclonal Antibody ([1]; spike concentration 200 ng/ml)	% recovery by Rabbit Polyclonal Antibody ([2]; spike concentration 100 ng/ml)	% recovery by Rabbit Polyclonal Antibody ([2]; spike concentration 200 ng/ml)	recovery by PIF colorimetric ELISA using rabbit anti-PIF monoclonal antibody [1]	% Recovery by Rabbit Monoclonal Antibody ([1]; spike concentration 500 ng/ml)	% Recovery by Rabbit Monoclonal Antibody ([1]; spike concentration 1000 ng/ml)	recovery by PIF colorimetric ELISA using rabbit polyclonal antibody [2]	% recovery by Rabbit Polyclonal Antibody ([2]; spike concentration 500 ng/ml)	% recovery by Rabbit Polyclonal Antibody ([2]; spike concentration 1000 ng/ml)
P5-10: PIF peptide, amino acid locations 5-10 (K P G S A N) (KPGSAN) [Clone P5-10]	0%	0%	0%	0%	–	–	–	–	–	–
P10-15: PIF peptide, amino acid locations 10-15 (N K P S D D) (NKPSDD) [Clone P10-15]	0%	0%	0%	0%	–	–	–	–	–	–
MVRIKPGSANKPSDD [Clone P1-15]	–	–	–	–	100%	100.0%	100.0%	100%	115.0%	101.4%
P1-13: PIF peptide, amino acid locations 1-13 (M V R I K P G S A N K P S) (MVRIKPGSANKPS) [Clone P1-13]	0%	0%	49.8%	31.1%	–	–	–	about 40%	–	–
P8-15: PIF peptide, amino acid locations 8-15 (S A N K P S D D) (SANKPSDD) [Clone P8-15]	0%	0%	0%	0%	–	–	–	–	–	–
P1-14: PIF peptide, amino acid locations 1-14 (M V R I K P G S A N K P S D) (MVRIKPGSANKPSD) [Clone P1-14]	3.8%	3.8%	44.6%	30.0%	about 3.8%	–	–	about 40%	–	–
